{
  "source": "paper PMC11520566",
  "about": "“Discovery of pyrazole-based analogs as CDK2 inhibitors with apoptotic-inducing activity: design, synthesis and molecular dynamics study” (RSC Advances, 2024)",
  "type_in_all_cases": "cell-based, human",
  "key": {"NCI 60 cell panel": {"system": "NCI 60 cell panel", "assay": "NCI 60 five dose assay, subpanel and full panel means"}, "HCT-116": {"system": "HCT-116", "assay": "NCI 60 five dose assay, Colon cancer"}, "CAKI-1": {"system": "CAKI-1", "assay": "NCI 60 five dose assay, Renal cancer"}, "NCI 60 cancer cell lines": {"system": "NCI 60 cancer cell lines", "assay": "NCI 60 single dose screen, mean over full panel", "conditions": "mean over NCI 60 cell lines; single dose 10 μM", "protocol": "The newly synthesized pyrazoles 2a–g, 7a–d, 8a and b, 9, and 10 were submitted to the National Cancer Institute (NCI) Developmental Therapeutics Program (http://www.dtp.nci.nih.gov) for assessment of their potential antiproliferative activity against a panel of NCI 60 cancer cell lines. All compounds were approved for screening against the approved 60 cancer cell lines at a single dose of 10 μM. The human cancer cell lines were derived from 9 variant cancer types including leukemia, melanoma, lung, colon, CNS, ovarian, renal, prostate and breast cancers. The results are presented as percentage of growth inhibition (GI%) of the screened compounds against the full panel of cell lines.\nUnder sterile conditions, the cell lines were grown in RPMI 1640 media (Gibco, NY, USA) supplemented with 10% fetal bovine serum (Biocell, CA, USA), and […] cell/mL was used to test the growth inhibition activity of the synthesized compounds. The compounds with concentrations ranging from 0.01 to 100 μM were prepared in phosphate buffer saline. Each compound was initially solubilized in dimethyl sulfoxide (DMSO); however, each final dilution contained less than 1% DMSO. Solutions of different concentrations (0.2 mL) were pipetted into the separate well of a microtiter tray in duplicate. Cell culture (1.8 mL) containing a cell population of […] cells per mL was pipetted into each well. Controls, containing only phosphate buffer saline and DMSO at identical dilutions, were also prepared in the same manner. These cultures were incubated in a humidified incubator at 37 °C. The incubator was supplied with 5% CO2 atmosphere. After 48 h, the cells in each well were diluted 10 times with saline and counted using a Coulter counter. The counts were corrected for the dilution.[34]"}, "M14": {"system": "M14", "assay": "NCI 60 five dose assay, Melanoma"}, "SK-MEL-5": {"system": "SK-MEL-5", "assay": "NCI 60 five dose assay, Melanoma"}, "RXF 393": {"system": "RXF 393", "assay": "NCI 60 five dose assay, Renal cancer"}, "NCI-H226": {"system": "NCI-H226", "assay": "NCI 60 five dose assay, Non-small cell lung cancer"}, "SF-295": {"system": "SF-295", "assay": "NCI 60 five dose assay, CNS cancer"}, "[1]": {"conditions": "Homo sapiens, read-out: LC50 (the source's name)"}},
  "data": [
    {"smiles": "CC(=NNc1ccc(S(N)(=O)=O)cc1)c1ccc(NN=C2C(=O)NN=C2Nc2ccccc2)cc1", "note": "[Compound 4, 4-(2-(1-(4-(2-(5-oxo-3-(phenylamino)-1,5-dihydro-4H-pyrazol-4-ylidene)hydrazinyl)phenyl)ethylidene)hydrazinyl)benzene sulfonamide]", "values": [
      {"measurement": "Selectivity index", "setting": "NCI 60 cell panel; full panel MG-MID / Melanoma subpanel MG-MID", "value": 1.539},
      {"measurement": "Selectivity index", "setting": "NCI 60 cell panel; full panel MG-MID / Non-small cell lung cancer subpanel MG-MID", "value": 0.795},
      {"measurement": "Selectivity index", "setting": "NCI 60 cell panel; full panel MG-MID / Ovarian cancer subpanel MG-MID", "value": 0.909},
      {"measurement": "Selectivity index", "setting": "NCI 60 cell panel; full panel MG-MID / Prostate cancer subpanel MG-MID", "value": 1.215},
      {"measurement": "Selectivity index", "setting": "NCI 60 cell panel; full panel MG-MID / Renal cancer subpanel MG-MID", "value": 0.415},
      {"measurement": "GI50", "setting": "HCT-116; Homo sapiens", "value": 3.04, "unit": "µM"},
      {"measurement": "CC50", "setting": "HCT-116; [1]", "value": 32, "unit": "µM"},
      {"measurement": "Percent Growth", "setting": "HCT-116; Log10 Concentration -4.0 Molar", "value": -100, "unit": "%"},
      {"measurement": "Percent Growth", "setting": "HCT-116; Log10 Concentration -5.0 Molar", "value": 1, "unit": "%"},
      {"measurement": "Percent Growth", "setting": "HCT-116; Log10 Concentration -6.0 Molar", "value": 96, "unit": "%"},
      {"measurement": "Percent Growth", "setting": "HCT-116; Log10 Concentration -7.0 Molar", "value": 104, "unit": "%"},
      {"measurement": "Percent Growth", "setting": "HCT-116; Log10 Concentration -8.0 Molar", "value": 98, "unit": "%"},
      {"measurement": "GI50", "setting": "CAKI-1; Homo sapiens", "value": 12.5, "unit": "µM"},
      {"measurement": "CC50", "setting": "CAKI-1; [1]", "value": 50.1, "unit": "µM"},
      {"measurement": "Percent Growth", "setting": "CAKI-1; Log10 Concentration -4.0 Molar", "value": -100, "unit": "%"},
      {"measurement": "Percent Growth", "setting": "CAKI-1; Log10 Concentration -5.0 Molar", "value": 66, "unit": "%"},
      {"measurement": "Percent Growth", "setting": "CAKI-1; Log10 Concentration -6.0 Molar", "value": 96, "unit": "%"},
      {"measurement": "Percent Growth", "setting": "CAKI-1; Log10 Concentration -7.0 Molar", "value": 102, "unit": "%"},
      {"measurement": "Percent Growth", "setting": "CAKI-1; Log10 Concentration -8.0 Molar", "value": 96, "unit": "%"},
      {"measurement": "mean GI%", "setting": "NCI 60 cancer cell lines", "value": 96.47, "unit": "%"},
      {"measurement": "GI50", "setting": "M14; Homo sapiens", "value": 2.83, "unit": "µM"},
      {"measurement": "CC50", "setting": "M14; [1]", "value": 35.1, "unit": "µM"},
      {"measurement": "Percent Growth", "setting": "M14; Log10 Concentration -4.0 Molar", "value": -80, "unit": "%"},
      {"measurement": "Percent Growth", "setting": "M14; Log10 Concentration -5.0 Molar", "value": -14, "unit": "%"},
      {"measurement": "Percent Growth", "setting": "M14; Log10 Concentration -6.0 Molar", "value": 103, "unit": "%"},
      {"measurement": "Percent Growth", "setting": "M14; Log10 Concentration -7.0 Molar", "value": 101, "unit": "%"},
      {"measurement": "Percent Growth", "setting": "M14; Log10 Concentration -8.0 Molar", "value": 93, "unit": "%"},
      {"measurement": "GI50", "setting": "SK-MEL-5; Homo sapiens", "value": 3.32, "unit": "µM"},
      {"measurement": "CC50", "setting": "SK-MEL-5; [1]", "value": 35.8, "unit": "µM"},
      {"measurement": "Percent Growth", "setting": "SK-MEL-5; Log10 Concentration -4.0 Molar", "value": -100, "unit": "%"},
      {"measurement": "Percent Growth", "setting": "SK-MEL-5; Log10 Concentration -5.0 Molar", "value": 12, "unit": "%"},
      {"measurement": "Percent Growth", "setting": "SK-MEL-5; Log10 Concentration -6.0 Molar", "value": 91, "unit": "%"},
      {"measurement": "Percent Growth", "setting": "SK-MEL-5; Log10 Concentration -7.0 Molar", "value": 100, "unit": "%"},
      {"measurement": "Percent Growth", "setting": "SK-MEL-5; Log10 Concentration -8.0 Molar", "value": 95, "unit": "%"},
      {"measurement": "GI50", "setting": "RXF 393; Homo sapiens", "value": 1.1, "unit": "µM"},
      {"measurement": "CC50", "setting": "RXF 393; [1]", "value": 21.1, "unit": "µM"},
      {"measurement": "Percent Growth", "setting": "RXF 393; Log10 Concentration -4.0 Molar", "value": -76, "unit": "%"},
      {"measurement": "Percent Growth", "setting": "RXF 393; Log10 Concentration -5.0 Molar", "value": -37, "unit": "%"},
      {"measurement": "Percent Growth", "setting": "RXF 393; Log10 Concentration -6.0 Molar", "value": 54, "unit": "%"},
      {"measurement": "Percent Growth", "setting": "RXF 393; Log10 Concentration -7.0 Molar", "value": 99, "unit": "%"},
      {"measurement": "Percent Growth", "setting": "RXF 393; Log10 Concentration -8.0 Molar", "value": 103, "unit": "%"},
      {"measurement": "GI50", "setting": "NCI-H226; Homo sapiens", "value": 3.31, "unit": "µM"},
      {"measurement": "CC50", "setting": "NCI-H226; [1]", "value": 35.1, "unit": "µM"},
      {"measurement": "Percent Growth", "setting": "NCI-H226; Log10 Concentration -4.0 Molar", "value": -100, "unit": "%"},
      {"measurement": "Percent Growth", "setting": "NCI-H226; Log10 Concentration -5.0 Molar", "value": 10, "unit": "%"},
      {"measurement": "Percent Growth", "setting": "NCI-H226; Log10 Concentration -6.0 Molar", "value": 93, "unit": "%"},
      {"measurement": "Percent Growth", "setting": "NCI-H226; Log10 Concentration -7.0 Molar", "value": 102, "unit": "%"},
      {"measurement": "Percent Growth", "setting": "NCI-H226; Log10 Concentration -8.0 Molar", "value": 96, "unit": "%"},
      {"measurement": "GI50", "setting": "SF-295; Homo sapiens", "value": 3.67, "unit": "µM"},
      {"measurement": "CC50", "setting": "SF-295; [1]", "value": 38.7, "unit": "µM"},
      {"measurement": "Percent Growth", "setting": "SF-295; Log10 Concentration -4.0 Molar", "value": -95, "unit": "%"},
      {"measurement": "Percent Growth", "setting": "SF-295; Log10 Concentration -5.0 Molar", "value": 15, "unit": "%"},
      {"measurement": "Percent Growth", "setting": "SF-295; Log10 Concentration -6.0 Molar", "value": 96, "unit": "%"},
      {"measurement": "Percent Growth", "setting": "SF-295; Log10 Concentration -7.0 Molar", "value": 96, "unit": "%"},
      {"measurement": "Percent Growth", "setting": "SF-295; Log10 Concentration -8.0 Molar", "value": 83, "unit": "%"}
    ]}
  ]
}
